What was measured:
Diabrotica balteata = Diabrotica balteata spray test; assay type: in vivo; settings: 168 h, beetle larvae on wheat, after 7 days, read-out: efficacy (wheat plant growth); for pest or weed control at 100 g/ha: 100 g/ha (=32 μg/cavity); for pest or weed control at 500 g/ha: 500 g/ha (=160 μg/cavity); for pest or weed control at 125 g/ha: 125 g/ha (=40 μg/cavity)
Procedure: Diabrotica balteata—Spray Test Solvent: 78 parts by weight of acetone • • 1.5 parts by weight of dimethylformamide Emulsifier: alkylaryl polyglycol ether
(§1) To produce a suitable active compound formulation, 1 part by weight of active compound is dissolved using the stated parts by weight of solvent and made up with water containing an emulsifier concentration of 1000 ppm until the desired concentration is attained. To produce further test concentrations, the formulation is diluted with emulsifier-containing water.
Pre-swollen wheat grains (Triticum aestivum) are incubated in a multiwell plate filled with agar and a little water for one day (5 seed grains per cavity). The germinated wheat grains are sprayed with an active compound formulation of the desired concentration. Subsequently, each cavity is infected with 10-20 beetle larvae of Diabrotica balteata.
After 7 days, the efficacy in % is determined. 100% means that all wheat plants have grown as in the untreated, uninfected control; 0% means that no wheat plant has grown.

Spodoptera frugiperda = Spodoptera frugiperda spray test; assay type: in vivo; settings: foliar, 168 h, maize leaf discs, after 7 days, read-out: efficacy (caterpillars killed)
Procedure: Spodoptera frugiperda—Spray Test Solvent: 78.0 parts by weight of acetone • • 1.5 parts by weight of dimethylformamide Emulsifier: alkylaryl polyglycol ether
as §1
Leaf discs of maize (Zea mays) are sprayed with an active compound formulation of the desired concentration and, after drying, populated with caterpillars of the fall armyworm (Spodoptera frugiperda).
After 7 days, the efficacy in % is determined. 100% means that all the caterpillars have been killed; 0% means that no caterpillar has been killed.

SMILES	pest or weed control at 100 g/ha (Diabrotica balteata)	pest or weed control at 500 g/ha (Diabrotica balteata)	pest or weed control at 100 g/ha (Spodoptera frugiperda)	pest or weed control at 500 g/ha (Spodoptera frugiperda; 500 g/ha)	pest or weed control at 125 g/ha (Diabrotica balteata)
CNc1nc(-c2ccc(C=NNC(=S)Nc3ccccc3C(C)C)cc2)nn1-c1ccc(OC(F)(F)C(F)(F)F)cc1 [Compound I-067]	100%	100%	100%		
CCOC(=O)C(=O)Nc1nc(-c2ccc(NC(=O)N=C3SCC(=O)N3c3ccccc3C(C)C)cc2)nn1-c1ccc(OC(F)(F)F)cc1 [Compound I-037]	80%	100%	83%		
CC(=O)Nc1cc(-c2ccc(C=NNC(=S)Nc3ccccc3C(C)C)cc2)nn1-c1ccc(OC(F)(F)F)cc1 [Compound I-040]	80%	100%	100%		
C=CCNc1nc(-c2ccc(NC(=O)N=C3SCC(=O)N3c3ccccc3C(C)C)cc2)nn1-c1ccc(OC(F)(F)F)cc1 [Compound I-086]	100%		100%		
CC(C)c1ccccc1N1C(=O)CSC1=NC(=O)Nc1ccc(-c2nc(NC3CCOC3)n(-c3ccc(OC(F)(F)F)cc3)n2)cc1 (stereo not shown) [Compound I-045]	100%	100%	100%	100%	
CNc1cc(-c2ccc(C=NN=C3SCC(=O)N3c3ccccc3C(C)C)cc2)nn1-c1ccc(OC(F)(F)F)cc1 [Compound I-106]	100%		100%		
CNc1nc(-c2ccc(C=NN3CCCSC3=Nc3ccccc3C(C)C)cc2)nn1-c1ccc(OC(F)(F)C(F)(F)F)cc1 [Compound I-125, 3-{4-[({2-[(2-isopropylphenyl)imino]-1,3-thiazinan-3-yl}imino)methyl]phenyl}-N-methyl-1-[4-(pentafluoroethoxy)phenyl]-1H-1,2,4-triazol-5-amine]	100%		100%		
CC(C)c1ccccc1NC(=S)NN=Cc1ccc(-c2nc(N)n(-c3ccc(OC(F)(F)C(F)(F)F)cc3)n2)cc1 [Compound I-066]	100%	100%	100%		
CC(C)c1ccccc1N1C(=O)CSC1=NC(=O)Nc1ccc(-c2nc(NC3CCC3)n(-c3ccc(OC(F)(F)F)cc3)n2)cc1 [Compound I-041]	100%	100%	100%		
CCS(=O)(=O)Nc1nc(-c2ccc(C=NNC(=S)Nc3ccccc3C(C)C)cc2)nn1-c1ccc(OC(F)(F)F)cc1 [Compound I-022]		100%	100%		100%
CC(=O)NCCNc1nc(-c2ccc(NC(=O)N=C3SCC(=O)N3c3ccccc3C(C)C)cc2)nn1-c1ccc(OC(F)(F)F)cc1 [Compound I-033]		100%	100%		100%
CNc1nc(-c2ccc(C=NN=C3SCCC(=O)N3c3ccccc3C(C)C)cc2)nn1-c1ccc(OC(F)(F)F)cc1 [Compound I-113]	100%		100%		
COC(CCNc1nc(-c2ccc(C=NN=C3SCC(=O)N3c3ccccc3C(C)C)cc2)nn1-c1ccc(OC(F)(F)F)cc1)OC [Compound I-088]	100%		100%		
CC(=O)Nc1nc(-c2ccc(C=NN=C3SCC(=O)N3c3ccccc3C(C)C)cc2)nn1-c1ccc(OC(F)(F)C(F)(F)F)cc1 [Compound I-099]	80%		100%		
CNc1nc(-c2ccc(C=NN=c3scc(C)n3-c3ccccc3C(C)C)cc2)nn1-c1ccc(OC(F)(F)C(F)(F)F)cc1 [Compound I-127]	100%		100%		
CNc1nc(-c2ccc(C=NN=C3SCC(=O)N3c3ccccc3C(C)C)cc2)nn1-c1ccc(OC(F)(F)C(F)(F)F)cc1 [Compound I-064]	100%	100%	100%		
CNc1nc(-c2ccc(C=NN=C3SCC(=O)N3c3ccccc3C(C)C)cc2)nn1-c1ccc(OC(F)(F)F)cc1 [Compound I-024]		100%	100%		100%
CC(C)c1ccccc1NC(=S)NN=Cc1ccc(-c2nc(NS(=O)(=O)C3CC3)n(-c3ccc(OC(F)(F)F)cc3)n2)cc1 [Compound I-023]		100%	100%		100%
CCOC(CNc1nc(-c2ccc(C=NN=C3SCC(=O)N3c3ccccc3C(C)C)cc2)nn1-c1ccc(OC(F)(F)F)cc1)OCC [Compound I-085]	80%		100%		

SMILES	pest or weed control at 100 g/ha (Diabrotica balteata)	pest or weed control at 500 g/ha (Diabrotica balteata)	pest or weed control at 100 g/ha (Spodoptera frugiperda)	pest or weed control at 500 g/ha (Spodoptera frugiperda; 500 g/ha)	pest or weed control at 125 g/ha (Diabrotica balteata)
CC(=O)Nc1nc(-c2ccc(NC(=O)N=C3SCC(=O)N3c3ccccc3C(C)C)cc2)nn1-c1ccc(OC(F)(F)C(F)(F)F)cc1 [Compound I-054]		100%	100%		
COCCNc1nc(-c2ccc(C=NNC(=S)Nc3ccccc3C(C)C)cc2)nn1-c1ccc(OC(F)(F)F)cc1 [Compound I-072]	100%		100%		
CC(C)c1ccccc1N1C(=O)CSC1=NN=Cc1ccc(-c2nc(NCCS(C)(=O)=O)n(-c3ccc(OC(F)(F)F)cc3)n2)cc1 [Compound I-095]	100%		100%		
CNc1nc(-c2ccc(NC(=O)N=C3SCC(=O)N3c3ccccc3C(C)C)cc2)nn1-c1ccc(OC(F)(F)C(F)(F)F)cc1 [Compound I-027]		100%	100%		100%
CC(C)c1ccccc1N1C(=O)CSC1=NC(=O)Nc1ccc(-c2nc(NC3CC3)n(-c3ccc(OC(F)(F)F)cc3)n2)cc1 [Compound I-029]		100%	100%		100%
CC(C)c1ccccc1NC(=S)NN=Cc1ccc(-c2nc(/N=C/N(C)C)n(-c3ccc(OC(F)(F)F)cc3)n2)cc1 [Compound I-061]	80%	80%	100%		
C=CCNc1nc(-c2ccc(C=NNC(=S)Nc3ccccc3C(C)C)cc2)nn1-c1ccc(OC(F)(F)F)cc1 [Compound I-071]	100%		100%		
CC(C)c1ccccc1NC(=S)NN=Cc1ccc(-c2nc(N)n(-c3ccc(OC(F)(F)F)cc3)n2)cc1 [Compound I-021]		100%	100%		100%
CC(C)c1ccccc1NC(=S)NN=Cc1ccc(-c2nc(NC3CCOC3)n(-c3ccc(OC(F)(F)F)cc3)n2)cc1 (stereo not shown) [Compound I-068]	100%	100%	100%		
CC(C)c1ccccc1NC(=S)NN=Cc1ccc(-c2nc(NC3COC3)n(-c3ccc(OC(F)(F)F)cc3)n2)cc1 [Compound I-049]	100%	100%	100%		
CNc1nc(-c2c(F)cc(C=NNC(=S)Nc3ccccc3C(C)C)cc2F)nn1-c1ccc(OC(F)(F)F)cc1 [Compound I-120]	100%		100%		
CC(=O)Nc1nc(-c2ccc(NC(=O)N=C3SCC(=O)N3c3ccccc3C(C)C)cc2)nn1-c1ccc(OC(F)(F)F)cc1 [Compound I-034]	100%	100%	100%		
CC(C)c1ccccc1N1C(=O)CSC1=NN=Cc1ccc(-c2nc(N)n(-c3ccc(OC(F)(F)C(F)(F)F)cc3)n2)cc1 [Compound I-065]	100%	100%	100%		
CNc1nc(-c2ccc(C=NNC(=S)Nc3cc(OC)ccc3C(C)C)cc2)nn1-c1ccc(OC(F)(F)F)cc1 [Compound I-084]	100%		100%		
COC(CCNc1nc(-c2ccc(C=NNC(=S)Nc3ccccc3C(C)C)cc2)nn1-c1ccc(OC(F)(F)F)cc1)OC [Compound I-082]	100%		100%		
CNc1nc(-c2ccc(/C=N/NC(=S)Nc3ccccc3C(C)C)c(Cl)c2)nn1-c1ccc(OC(F)(F)F)cc1 [Compound I-114]	100%		100%		
CNc1nc(-c2ccc(C=NN=C3SCC(=O)N3c3ccccc3C(C)C)cc2C#N)nn1-c1ccc(OC(F)(F)F)cc1 [Compound I-124]	100%		100%		
CCNc1nc(-c2ccc(C=NNC(=S)Nc3ccccc3C(C)C)cc2)nn1-c1ccc(OC(F)(F)F)cc1 [Compound I-050]	100%	100%	100%		
CNc1nc(-c2ccc(C=NN=C3SCC(=O)N3c3ccccc3C(C)C)nc2)nn1-c1ccc(OC(F)(F)F)cc1 [Compound I-118]	100%		100%		

Reference: patent publication US20220289691A1, “5-AMINO-SUBSTITUTED PYRAZOLES AND TRIAZOLES AS PEST CONTROL AGENTS” (Bayer Aktiengesellschaft, priority 2019, published 2022)
